Key:
HIV-1 = conditions: patients on ART; cited from earlier work
[1] = tested on: HIV-1 (latent, in resting CD4+ T cells from infected individuals); conditions: earlier study of the inventors (32); cited from earlier work
[2] = tested on: HIV-1 (latent, in resting CD4+ T cells from infected individuals); conditions: earlier study (32); cited from earlier work
[3] = tested on: HIV-1 (latent, in resting CD4+ T cells from infected individuals); format: cell-based; conditions: for virus release into supernatant (in words): 24 hours of treatment; for ρ, median fold change in supernatant HIV-1 mRNA versus DMSO control observed in the ex vivo assay: lower bound, as no virion production was detectable for DMSO
Procedure: Production and release of HIV-1 virions by LRA-treated rCD4s indicates complete reversal of latency in those cells. To assess whether combinations of LRAs induced rapid virus release, HIV-1 mRNA were measured in the culture supernatants of LRA-treated rCD4s from infected individuals on suppressive ART using an RT-qPCR assay previously shown to provide sensitive and accurate quantitation of HIV-1 virion production (45). […] The Bliss independence model was applied to quantitate interactions between LRAs.
(§1) The final DMSO percentage was 0.2% (v/v) for all single and combination treatments. Concentrations were chosen based on previous ex vivo studies with rCD4s from infected individuals as well as studies using in vitro latency models (13, 28, 29, 32-34) with the aim of selecting clinically relevant concentrations.
HIV-1 mRNA was extracted from 0.25 mL of supernatant from the LRA-treated cell cultures described above with 0.75 mL of TRIzol® LS Reagent (Invitrogen) according to the manufacturer's protocol. cDNA synthesis and real-time quantitative PCR was performed as described (32). […] The limit of detection for each qPCR was 10 copies per reaction, which scaled to a limit of detection of 150 copies per mL of culture supernatant. Primers and probes are listed below. Molecular standard curve was generated as described above.
(§2) The Bliss independence model, one method to predict the expected combined effects of multiple drugs assuming the drugs act through independent mechanisms, as a metric by which to evaluate the latency reversing activity of drug combinations was used. The Bliss independence model is defined by the equation:
(§3) If Dfaxy=0, then the drug combination follows the Bliss model for independent action. […] In this analysis, the fraction affected was calculated as follows for intracellular HIV-1 mRNA and for supernatant HIV-1 virion quantitation:
(§4) fax=(copies drug X−copies DMSO control)/(copies PMA/I−copies DMSO control)

[4] = cancer patients; cited from earlier work
[5] = tested on: HIV-1 (latent, in resting CD4+ T cells from infected individuals)
Description: as §1, §2, §3, §4

[6] = continuous infusion for 14 or 21 days; cited from earlier work

Row | Structure (SMILES) | latency reversal in rCD4s from infected individuals (in words) [1] | virus release into supernatant (in words) [3] | ρ, median fold change in supernatant HIV-1 mRNA versus DMSO control observed in the ex vivo assay [3] | also measured
1 | O=C(CCCCCCC(=O)Nc1ccccc1)NO [vorinostat] | only minimally active | – | – | increase in plasma HIV-1 RNA using quantitative clinical assays (in words) (HIV-1): no increases in plasma HIV-1 RNA; viral production ex vivo (in words) [2]: fail to stimulate detectable viral production
2 | CC(=O)O[C@@]12C[C@@H](C)[C@@]3(O)[C@@H](C=C(CO)C[C@]4(O)C(=O)C(C)=C[C@@H]34)[C@@H]1C2(C)C [prostratin] | – | significant virus release | 209 | –
3 | Cc1sc2c(c1C)C(c1ccc(Cl)cc1)=N[C@@H](CC(=O)OC(C)(C)C)c1nnc(C)n1-2 [JQ1] | only minimally active | – | – | –
4 | CCC/C=C/C=C/C(=O)O[C@H]1/C(=C/C(=O)OC)C[C@H]2C[C@H]([C@@H](C)O)OC(=O)C[C@H](O)C[C@@H]3C[C@H](OC(C)=O)C(C)(C)[C@](O)(C[C@@H]4C/C(=C/C(=O)OC)C[C@H](/C=C/C(C)(C)[C@]1(O)O2)O4)O3 [bryostatin-1] | – | significant virus release | 120 | intracellular HIV-1 mRNA induction relative to the maximum reactivation elicited by T cell activation [1]: four; clinical tolerability (in words) [4]: dose limiting toxicities grade 3/4 myalgia, arthralgia, and weakness; induction of intracellular HIV-1 mRNA (significance, in words) ([5]; 1 nM bryostatin-1): did not induce significant intracellular HIV-1 mRNA; mean increase in intracellular HIV-1 mRNA, fold induction relative to DMSO control ([5]; rCD4s from infected individuals on ART, 24 h, 10 nM bryostatin-1, 300 nM prostratin, 40 nM romidepsin, 50 ng/mL PMA + 1 μM ionomycin): 12.8 fold; approximated maximally tolerated dose [6]: ~16 μg/m2/day
5 | C/C=C1\NC(=O)[C@H]2CSSCC/C=C/[C@H](CC(=O)N[C@H](C(C)C)C(=O)N2)OC(=O)[C@H](C(C)C)NC1=O [romidepsin] | – | – | 15 | –
